# Values quoted from earlier work as cited in patent publication US8512311B2, “Augmentation of intraluminal microvessel formation to facilitate guide wire crossing in chronic total occlusions” (priority 2004, dated 2013).
# Test system: venous thrombi
# Conditions: injection into venous thrombi, rat model, compared to controls
substance,measurement,value
vascular endothelial growth factor [VEGF protein],increase in thrombus recanalization,two-fold
